Experimental data reported in article PMC12631831, “Painting Peptides With Antimicrobial Potency Through Deep Reinforcement Learning” (Advanced Science, 2025).
Like-named read-outs stand apart in the source and are kept apart here. Ends that are not written are not given here.

Assays:
B.subtilis ATCC6633 = tested on: B.subtilis ATCC6633
Experimental: (§1) Four standard bacteria used for the MIC test were Escherichia coli ATCC25922, Pseudomonas aeruginosa ATCC9027, Staphylococcus aureus ATCC6538, and Bacillus subtilis ATCC6633. The testing procedures followed the Hancock methods.^[ [67] ^] The peptides were diluted in sterilized PBS to 512 µM as storage solutions. Then twofold gradient dilution was performed to make different concentrations (128, 64, 32, 16, 8, 4, 2, 1, 0.5, 0.25, and 0.125 µM) of AMPs. Each bacteria was incubated in LB broth at 37 °C until its absorbance at 625 nm reached 0.08–0.10, then diluted 10,000 times and added into a sterile 96‐well polypropylene plate (Grenier, #655201). A co‐incubation system included 100 µL peptide solution and 100 µL bacterial suspension.

S.aureus ATCC6538 = conditions: ATCC6538, 18 h
Experimental: as §1

E.coli ATCC25922 = conditions: ATCC25922, 18 h
Experimental: as §1

P.aeruginosa ATCC9027 = conditions: ATCC9027, 18 h
Experimental: as §1

rat erythrocytes = experiment: Hemolysis assay; conditions: rat RBC 10% in PBS, 37 °C, 1 min, 1-128 µM, absorbance 450 nm, triplicate, fitted with GraphPad Prism 8
Experimental: In vitro hemolysis and cytotoxicity were measured by WuXi AppTec Co., ltd. The rat blood was collected and mixed in PBS, then centrifuged at 500 g for 5 mins to make the red blood cell solution (RBC, 10%). Two‐fold gradient dilution was performed to obtain different concentrations (128, 64, 32, 16, 8, 4, 2, and 1 µM) of AMP solutions. Then AMP solutions were added into 100 µL RBC to make the test solution and incubated at 37 °C for 1 min. The assay solution was centrifuged at 2500 g for 6 mins. After centrifugation, the 75 µL supernatant was placed into a 96‐well plate. PBS was used as the vehicle control and 0.1% Triton X‐100 was the positive control. The absorbance of the supernatant in each well was detected at 450 nm using EnVison (PerkinElmer) and the percentage of hemolysis was calculated as Equation (15). The HC25 value was fitted using GraphPad Prism 8. All tests were performed in triplicate. (15) Hemolysis%=AbsAMP−AbsPBS/AbsTritonX−100−AbsPBS×100

HEK293T cells = experiment: Cytotoxicity assay (CellTiter-Glo); assay type: cell-based, human; conditions: 72 h, 1-128 µM, triplicate
Experimental: HEK293T cells were cultured in DMEM supplemented with 10% FBS and incubated at 37 °C with 5% CO2. After planting the cells into a 96‐well plate and incubated overnight, AMP solutions were added. The gradient dilution of AMPs followed the same setting as mentioned in the hemolysis assay. Staurosporine (STS) was used as a positive control and PBS as vehicle control. STS was diluted to 60, 12, 2.4, 0.48, 0.1, 0.02, 0.0038, and 0.0008 µM. After incubation for 72 h, the CellTiter‐Glo®Luminescent assay was performed to evaluate the cell viability. After equilibration to room temperature, the 96‐well plate containing treated cells was loaded with 100 µL CellTiter Glo (CTG, Promega) reagent each well. The plate was incubated for 30 mins, then detected by the EnVision system at a […]. Data were fitted and analyzed with GraphPad Prism 8. All tests were performed in triplicate.

human erythrocytes = conditions: cited from earlier work
tumor cells = conditions: ref DRACP; cited from earlier work
rabbit erythrocytes = conditions: ref DBAASP; cited from earlier work

| Sequence | MIC B.subtilis ATCC6633 (B.subtilis ATCC6633; ATCC6633, 18 h) | MIC S.aureus ATCC6538 (S.aureus ATCC6538) | MIC E.coli ATCC25922 (E.coli ATCC25922) | MIC P.aeruginosa ATCC9027 (P.aeruginosa ATCC9027) | other results |
| --- | --- | --- | --- | --- | --- |
| RGWFKVKMRYIKRFMRGLRGFHIKAA [2-6] | 2 µM | 1 µM | 4 µM | 16 µM |  |
| GIKKWIKGAIKKLIKKVAKWIWKQ [A07] | 0.5 µM | 2 µM | 8 µM | 16 µM |  |
| RRLRRLRILLFLKRVLRR [S02] |  |  |  |  | HC25 (concentration that causes 25% hemolysis) (rat erythrocytes): > 128 µM; CC50 (concentration that reduces viability by 50%) (HEK293T cells): > 128 µM |
| QPKKPYKPIYKKVRGVLIPFKRV [R10] | > 128 µM | > 128 µM | > 128 µM | > 128 µM |  |
| LWRWKLLGRISVIIGKIKAALRLWF [R06] | > 128 µM | > 128 µM | > 128 µM | > 128 µM |  |
| FFHHIFRAIVHVGKTIHRLVTG [Piscidin 1 [G8A], reference compound] |  |  |  |  | MIC B.subtilis (B.subtilis ATCC6633; ATCC6633, 18 h): 4 µM; MIC S.aureus (S.aureus ATCC6538): 4 µM; MIC E.coli (E.coli ATCC25922): 16 µM; MIC P.aeruginosa (P.aeruginosa ATCC9027): > 128 µM; HC50 (human erythrocytes; ref DBAASP): 4 µM |
| WKKWRWWWRWKKLWW [A10] |  |  |  |  | HC25 (concentration that causes 25% hemolysis) (rat erythrocytes): 30.13 µM; CC50 (concentration that reduces viability by 50%) (HEK293T cells): 51.11 µM |
| KWWKRRRWRWRWKKLWK [A04] |  |  |  |  | HC25 (concentration that causes 25% hemolysis) (rat erythrocytes): > 128 µM; CC50 (concentration that reduces viability by 50%) (HEK293T cells): 49.63 µM |
| IFHHIFRGIHHIFKGIHRLWKR [A02] | 4 µM | 4 µM | 64 µM | > 128 µM |  |
| KKQVKWLLKVWKKVGIKLGAKLPVWK [S01] | 2 µM | 2 µM | 16 µM | 64 µM |  |
| YKGFWRKIIYLIMMHAMKFMVWFLHLPKQ [R08] | > 128 µM | > 128 µM | > 128 µM | > 128 µM |  |
| GRKKRRQRRRGGWMWVTNLRTD [TAT-Ras-GAP317-326] |  |  |  |  | Hemolysis and cytotoxicity (tumor cells): Enhances genotoxin-induced cytotoxicity in tumor cells |
| DGWTMVKARYIKRFMRGLRGFHIKAA [2-1] | 8 µM | 16 µM | 8 µM | > 128 µM |  |
| GIKDWIKGAAKTLIKTVASHIANQ [Ascaphin-5, reference compound] |  |  |  |  | MIC B.subtilis (B.subtilis ATCC6633; initial sequences of A01-A10, same conditions as A01-A10): 16 µM; MIC S.aureus (S.aureus ATCC6538): 4 µM; MIC E.coli (E.coli ATCC25922): 16 µM; MIC P.aeruginosa (P.aeruginosa ATCC9027): 128 µM; HC50 (human erythrocytes; ref DRAMP): > 200 µM |
| KQQRKRGRVRKALLGKVIGFGGLKLKG [S08] |  |  |  |  | HC25 (concentration that causes 25% hemolysis) (rat erythrocytes): > 128 µM; CC50 (concentration that reduces viability by 50%) (HEK293T cells): > 128 µM |
| KLKIKFKFHLKLFGLF [S09] | > 128 µM | 128 µM | > 128 µM | > 128 µM |  |
| WWWHLRIWLKKKHQKAQWKKFGWFMKQHH [R05] | 8 µM | 2 µM | > 128 µM | 128 µM |  |
| KWFFKWFRKHFLKWMRQYFHK [R02] | 4 µM | 8 µM | 128 µM | 64 µM |  |
| IKRRIRRRPIRRRQRR [S06] | > 128 µM | 128 µM | > 128 µM | > 128 µM |  |

| Sequence | MIC B.subtilis ATCC6633 (B.subtilis ATCC6633; ATCC6633, 18 h) | MIC S.aureus ATCC6538 (S.aureus ATCC6538) | MIC E.coli ATCC25922 (E.coli ATCC25922) | MIC P.aeruginosa ATCC9027 (P.aeruginosa ATCC9027) | other results |
| --- | --- | --- | --- | --- | --- |
| RGWTMVKARYIKRFMRGLRGFHIKAA [2-2] | 2 µM | 2 µM | 4 µM | 128 µM |  |
| AFHHIFRGIVHVGKTIHRLVTG [Piscidin 1 [F1A], reference compound] |  |  |  |  | MIC B.subtilis (B.subtilis ATCC6633; ATCC6633, 18 h): 4 µM; MIC S.aureus (S.aureus ATCC6538): 4 µM; MIC E.coli (E.coli ATCC25922): 16 µM; MIC P.aeruginosa (P.aeruginosa ATCC9027): > 128 µM; Concentration for 100% hemolysis (human erythrocytes; ref DBAASP): 100 µM |
| RWWRGWWRRKLKKLRKKLKKKLKGM [A01] |  |  |  |  | HC25 (concentration that causes 25% hemolysis) (rat erythrocytes): 14.66 µM; CC50 (concentration that reduces viability by 50%) (HEK293T cells): 11.62 µM |
| YWRRWYIWRWRRWRWLRYI [R03] | 128 µM | 128 µM | > 128 µM | > 128 µM |  |
| RWRKWRRWWWRKKKLGF [A06] |  |  |  |  | HC25 (concentration that causes 25% hemolysis) (rat erythrocytes): > 128 µM; CC50 (concentration that reduces viability by 50%) (HEK293T cells): 71.09 µM |
| WVQKKVIKLILKGLFALKLLG [S03] | > 128 µM | 128 µM | > 128 µM | > 128 µM | HC25 (concentration that causes 25% hemolysis) (rat erythrocytes): > 128 µM; CC50 (concentration that reduces viability by 50%) (HEK293T cells): > 64 µM |
| GIKKWIKGWAKKLIKKVAKKIAKQ [A05] | 0.25 µM | 1 µM | 0.5 µM | 4 µM |  |
| GRKKRRRRRRGGWWWKLGLRWF [A08] | 64 µM | 64 µM | > 128 µM | > 128 µM |  |
| WIPKRFGIVIKRFYYRPFYPLFQ [R07] | > 128 µM | 128 µM | > 128 µM | > 128 µM |  |
| RLKIHLYIKHYRRPKIVIRLKIK [R01] | > 128 µM | 128 µM | > 128 µM | > 128 µM |  |
| SMWSGMWRRKLKKLRNALKKKLKGE [Latarcin-1] |  |  |  |  | Concentration for 20% hemolysis (rabbit erythrocytes): 80 µM |
| WRWKGRWRRKLKKLRWKLKKKLKLG [A03] |  |  |  |  | HC25 (concentration that causes 25% hemolysis) (rat erythrocytes): > 128 µM; CC50 (concentration that reduces viability by 50%) (HEK293T cells): 21.67 µM |
| RKRVVWGKIFFRRR [S04] | 64 µM |  | 64 µM |  |  |
| GILFLKRLRILGIGKLLLLKR [S05] | 64 µM | 128 µM | > 128 µM | > 128 µM |  |
| FFHHIFRKIHHVFKKIHRLFHH [A09] | 4 µM | 8 µM | 64 µM | > 128 µM |  |
| KLYKYKYRKVYKKQRRR [R09] | > 128 µM | 64 µM | > 128 µM | > 128 µM |  |
| RGWFKVKRRYIKRFMRGLRGFHIKAA [R04] | 1 µM | 0.5 µM | 2 µM | 8 µM | CC50 (concentration that reduces viability by 50%) (HEK293T cells): 23.59 µM |
| VKKRLLFRKPLLKLFLLFGRRLKA [S07] |  |  |  |  | HC25 (concentration that causes 25% hemolysis) (rat erythrocytes): > 128 µM; CC50 (concentration that reduces viability by 50%) (HEK293T cells): 22.12 µM |
